{
  "source": "patent US10814002B2",
  "about": "“Patch and method for producing the same” (HISAMITSU PHARMACEUTICAL CO., INC., priority 2012, dated 2020)",
  "assay": "Oral (sublingual) administration of 5 mg asenapine maleate to healthy adult men",
  "type": "in vivo, human",
  "conditions": "5 mg asenapine maleate sublingual, healthy adult men (18)",
  "method": "The N-desmethyl asenapine tends to cause adverse effects such as adverse effects on the cardiovascular system in comparison with asenapine. For example, in a case where 5 mg of asenapine maleate is orally administered (sublingual administration), the area under plasma concentration-time curve of the free asenapine for a period between 10 minutes and 72 hours (AUC0.17.72) can be 25,000 to 38,000 pg·hr/mL. In this case, N-desmethyl asenapine has an AUC0.17.72 of 10,000 to 17,000 pg·hr/mL, which is 40% or more of the […] of the free asenapine. In contrast, when approximately the same amount (4.8 mg) of asenapine is administrated using the patch of the present invention comprising the isopropyl palmitate in the adhesive agent layer, this makes it possible to sufficiently suppress the AUC of the asenapine metabolite while the free asenapine has an AUC equivalent to that in the case of the oral administration.\nFurthermore, in a case where the patch obtained in Example 2 was administrated, the incidence proportion of adverse effects on the cardiovascular system in the AUC measurement test was 6%. […]",
  "note": "Structures can show the parent of a compound that is named as a salt.",
  "data": [
    {"smiles": "CN1C[C@@H]2c3ccccc3Oc3ccc(Cl)cc3[C@H]2C1", "note": "(relative stereo) [asenapine maleate, trans-5-chloro-2-methyl-2,3,3a,12b-tetrahydro-1H-diben z[2,3:6,7]oxepino[4,5-c]pyrrole]", "values": [
      {"measurement": "incidence proportion of adverse effects on the cardiovascular system", "value": 39, "unit": "%"},
      {"measurement": "AUC0.17.72 of the free asenapine (average value)", "setting": "plasma, 10 minutes to 72 hours", "value": "32,074 pg·hr/mL"}
    ]}
  ]
}
